Laboratory results taken from patent US8497278B2, “Imidazo[1,2-a]pyridine compounds” (priority 2008, dated 2013).

Assays:
rhesus monkeys = experiment: Rhesus monkey conflict test; format: in vivo; settings: cumulative dosing
Source text: Conflict protocol: The conflict procedure is a well established operant conditioning approach to evaluate anxiolytic-like effects of test compounds. In this procedure, positively-reinforced behavior is suppressed by response-contingent administration of a noxious stimulus (i.e., mild electric shock). Compounds with anxiolytic effects in humans (e.g., benzodiazepines) characteristically increase rates of responding that are suppressed by shock and are referred to as anti-conflict or anxiolytic-like effects. […] In addition to anxiolytic-like effects, conflict procedures also provide an assessment of the ability of the animal to perform operant lever pressing. This is typically assessed by including lever pressing in the absence of the noxious stimulus. Most anxiolytic compounds will decrease rates of responding in the absence of shock at doses higher than those that induce anxiolytic-like effects. The effects contributing to anxiolytic-induced decreases in non-suppressed responding are not well understood, but likely consist of a combination of motor co-ordination deficits and sedative effects.
Adult rhesus monkeys were used in these studies (n=1-4). Weights of the monkeys ranged from 6.2 to 10.5 kg. The animals had been previously trained using the conflict procedure. Animals were maintained at 85-95% of their free-feeding weights by manipulation of food intake. Monkeys were individually housed with water available ad libitum, and maintained on a 12 hour lights-on/12 hour lights-off cycle (lights on at 0600 a.m.). Monkeys received Harlan Teklad diet (15% Primate Diet) as well as supplemental feeding (fruits, vegetables, and commercially available primate treats) daily. They were also given toys and video enrichment when not in an experimental session. Each animal was prepared prior to the study with a chronic indwelling venous catheter for drug delivery. A polyvinyl chloride catheter was implanted in a jugular, femoral or brachial vein under isoflurane anesthesia and aseptic conditions. The proximal end of the catheter terminated above the right atrium, and the distal end was passed subcutaneously to exit in the midscapular region. Experimental sessions began 5-7 days following surgery. Catheters had been implanted approximately 3 months to 1 year prior to the initiation of the study. During experimental sessions, monkeys were seated in primate chairs that were placed in ventilated sound-attenuating chambers. A single response lever was mounted on the wall of the chamber in front of the monkey. Each press of a lever produced an audible click and was recorded as a response via electromechanical equipment, a computer interface, and PC with specialized software. Food pellets could be delivered into a tray located next to the lever. Mild electric shock could be delivered to the bottom of the feet via brass electrodes that were fitted to shoes. Red and green lights mounted above the levers could be illuminated to serve as visual stimuli.
Monkeys were trained under a multiple schedule of food reinforcement adapted from Spealman (1979). A daily session consisted of 4 cycles, each preceded by a 10-min time out period in which all lights in the chamber were off and responding had no programmed consequences. Each cycle consisted of two components, component 1 and 2. Component 1 was signaled by red stimulus lights and consisted of an 18-response schedule (FR18) of food pellet delivery (i.e., the animal receives a food pellet following 18 responses). Component 2, signaled by green stimulus lights, followed immediately and consisted of the FR18 schedule of food delivery combined with a FR20 schedule of foot shock delivery (1.5-3.0 mA, adjusted for each monkey based on individual performance, 0.25 sec duration). Delivery of a food pellet (FR18 schedule) was followed by a 10 sec time out in which responses had no programmed consequences. […]

[1] = target: T1, α1 subtype containing GABA-A receptors (Homo sapiens, UniProt P14867+P18507); experiment: Two-electrode voltage clamp electrophysiology in Xenopus oocytes, potentiation of GABA EC20 response, α1; format: cell-based; settings: 100 nM compound; for activation at 0.1 µM: read-out: Percentage of potentiation alpha1
T1 construct: expressed in transfected cells; host or cells: Xenopus laevis oocytes, cRNA injected
T1 sequence (P14867 28-456): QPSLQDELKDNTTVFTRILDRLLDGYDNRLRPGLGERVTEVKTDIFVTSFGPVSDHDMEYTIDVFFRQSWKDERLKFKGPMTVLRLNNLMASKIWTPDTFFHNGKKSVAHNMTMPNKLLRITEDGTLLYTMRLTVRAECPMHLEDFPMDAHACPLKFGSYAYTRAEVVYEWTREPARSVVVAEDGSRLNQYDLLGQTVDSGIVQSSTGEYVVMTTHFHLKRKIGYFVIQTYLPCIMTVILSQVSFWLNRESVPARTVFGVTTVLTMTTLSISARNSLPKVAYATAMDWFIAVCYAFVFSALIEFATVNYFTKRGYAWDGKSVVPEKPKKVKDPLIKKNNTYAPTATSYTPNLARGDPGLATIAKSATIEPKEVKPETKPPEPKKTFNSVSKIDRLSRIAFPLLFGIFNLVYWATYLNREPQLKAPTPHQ
T1 sequence (P28472 26-473 partner): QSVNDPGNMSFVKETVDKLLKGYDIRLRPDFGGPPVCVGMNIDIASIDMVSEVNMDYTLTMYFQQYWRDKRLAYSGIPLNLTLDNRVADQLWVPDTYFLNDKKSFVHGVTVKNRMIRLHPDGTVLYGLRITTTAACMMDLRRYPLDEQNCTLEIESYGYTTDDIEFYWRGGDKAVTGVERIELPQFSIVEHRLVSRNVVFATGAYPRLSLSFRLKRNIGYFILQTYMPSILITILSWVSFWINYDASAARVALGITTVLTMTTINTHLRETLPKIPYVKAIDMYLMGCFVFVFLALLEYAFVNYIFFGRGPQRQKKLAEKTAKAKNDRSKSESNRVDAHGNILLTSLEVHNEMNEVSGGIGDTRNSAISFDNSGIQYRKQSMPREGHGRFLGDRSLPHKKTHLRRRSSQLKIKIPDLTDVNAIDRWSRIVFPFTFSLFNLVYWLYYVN
T1 sequence (P18507 40-475): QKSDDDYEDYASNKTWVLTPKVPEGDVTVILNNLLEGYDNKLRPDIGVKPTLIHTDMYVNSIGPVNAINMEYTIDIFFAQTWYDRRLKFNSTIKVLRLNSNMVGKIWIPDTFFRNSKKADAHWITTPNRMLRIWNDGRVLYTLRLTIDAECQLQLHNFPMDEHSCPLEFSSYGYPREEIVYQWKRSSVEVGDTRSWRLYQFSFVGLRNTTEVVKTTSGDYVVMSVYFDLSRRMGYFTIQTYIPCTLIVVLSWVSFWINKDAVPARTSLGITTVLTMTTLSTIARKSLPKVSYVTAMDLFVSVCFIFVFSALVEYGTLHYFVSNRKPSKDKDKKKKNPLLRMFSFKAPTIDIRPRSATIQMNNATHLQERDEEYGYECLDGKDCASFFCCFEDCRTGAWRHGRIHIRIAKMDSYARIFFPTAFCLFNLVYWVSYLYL
How it was run: (§1)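 Compounds are tested at 100 nM, one per oocyte, against an EC20 GABA (60 μM) response in human α1-, α2-, α3- or α5-β3-γ2L receptors clamped at −80 mV. Oocytes showing rapid desensitization or weak chlordiazepoxide (1 μM) potentiation are excluded.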

[2] = target: T2, α2 subtype containing GABA-A receptors (Homo sapiens, UniProt P18507+P47869); experiment: Two-electrode voltage clamp electrophysiology in Xenopus oocytes, potentiation of GABA EC20 response, α2; format: cell-based; settings: 100 nM compound; for activation at 0.1 µM: read-out: Percentage of potentiation alpha2
T2 construct: expressed in transfected cells; host or cells: Xenopus laevis oocytes, cRNA injected
T2 sequence (P47869 29-451): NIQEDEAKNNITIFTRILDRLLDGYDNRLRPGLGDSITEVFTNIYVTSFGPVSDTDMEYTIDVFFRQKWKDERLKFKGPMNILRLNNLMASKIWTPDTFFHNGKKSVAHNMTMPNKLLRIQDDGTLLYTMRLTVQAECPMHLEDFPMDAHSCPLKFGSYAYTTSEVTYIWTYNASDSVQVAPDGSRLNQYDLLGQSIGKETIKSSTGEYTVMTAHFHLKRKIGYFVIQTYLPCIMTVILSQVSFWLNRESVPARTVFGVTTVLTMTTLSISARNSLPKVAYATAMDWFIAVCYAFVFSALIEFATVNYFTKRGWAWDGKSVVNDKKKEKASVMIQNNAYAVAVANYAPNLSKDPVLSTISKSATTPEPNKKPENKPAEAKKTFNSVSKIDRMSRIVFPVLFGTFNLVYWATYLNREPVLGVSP
T2 sequence (P28472 26-473 partner): as the sequence (P28472 26-473 partner) above
T2 sequence (P18507 40-475): as the sequence (P18507 40-475) above
How it was run: as §1

[3] = system: central benzodiazepine receptors; experiment: Central benzodiazepine receptor binding (test of Speth et al.); settings: 1000 nM of the compound
How it was run: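 Radioligand binding by the Speth et al. method. Specific binding is total minus nonspecific binding, the latter measured with excess unlabelled ligand. Compounds screened at 1.0E-09, 1.0E-07 and 1.0E-05 M in single determination; values given as percent inhibition at 1000 nM compound.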

SMILES | activation at 0.1 µM [1] | activation at 0.1 µM [2] | % Inhibition at 1000 nM for CBZD [3] | Percentage of potentiation alpha1 [1] | Percentage of potentiation alpha2 [2] | further results
Cc1nnc2n1-c1ccc(Cl)cc1C(c1ccccc1)=NC2 [Alprazolam, reference compound] |  |  |  |  |  | Non-Suppressed Response Rates Mean ± S.E.M. (rhesus monkeys; 0.003 mg/kg IV): 2.18 ± 0.26 Responses/Second; Suppressed Response Rates Mean ± S.E.M. (rhesus monkeys; 0.003 mg/kg IV): 0.04 ± 0.02 Responses/Second; Non-Suppressed Response Rates Mean ± S.E.M. (rhesus monkeys; 0.01 mg/kg IV): 2.62 ± 0.32 Responses/Second; Suppressed Response Rates Mean ± S.E.M. (rhesus monkeys; 0.01 mg/kg IV): 0.76 ± 0.26 Responses/Second; Non-Suppressed Response Rates Mean ± S.E.M. (rhesus monkeys; 0.03 mg/kg IV): 2.38 ± 0.36 Responses/Second; Suppressed Response Rates Mean ± S.E.M. (rhesus monkeys; 0.03 mg/kg IV): 2.28 ± 0.55 Responses/Second; Non-Suppressed Response Rates Mean ± S.E.M. (rhesus monkeys; 0.1 mg/kg IV): 1.16 ± 0.26 Responses/Second; Suppressed Response Rates Mean ± S.E.M. (rhesus monkeys; 0.1 mg/kg IV): 1.44 ± 0.57 Responses/Second
OC1CCN(c2cncc(Cc3c(-c4ccc(Cl)cc4)nc4ccccn34)n2)C1 (centres unmarked) [Compound 191, 1-(6-((2-(4-chlorophenyl)imidazo[1,2-a]pyridin-3-yl)methyl)pyrazin-2-yl)pyrrolidin-3-ol] | 10 to 50% | 10 to 50% | ++ (percentage of inhibition of central BZD site binding is greater than 80% in the presence of 1000 nM of the compound) |  |  | 
CN(C)CCNC(=O)c1nccn1Cc1c(-c2ccc(Cl)cc2)nc2ccccn12 [Compound 78, 1-((2-(4-chlorophenyl)H-imidazo[1,2-a]pyridin-3-yl)methyl)-N-(2-(dimethylamino)ethyl)-1H-imidazole-2-carboxamide] |  |  | ++ (percentage of inhibition of central BZD site binding is greater than 80% in the presence of 1000 nM of the compound) | + (percentage of potentiation is greater than or equal to 10% but less than 50% in the presence of 100 nM of the compound) | + (percentage of potentiation is greater than or equal to 10% but less than 50% in the presence of 100 nM of the compound) | 
Clc1ccc2nc(-c3ccccc3)c(Cn3nc4ccccc4n3)n2c1 [Compound 47, 2-((6-chloro-2-phenylH-imidazo[1,2-a]pyridin-3-yl)methyl)-2H-benzo[d][1,2,3]triazole] |  |  | + (percentage of inhibition of central BZD site binding is greater than 50% but less than 80% in the presence of 1000 nM of the compound) | 0 (percentage of potentiation is between about 10% to about −10%) | 0 (percentage of potentiation is between about 10% to about −10%) | 
Cc1ccc(-c2nc3ccc(C)cn3c2Cn2ccnc2C)cc1 [Compound 2, 6-Methyl-3-((2-methyl-1H-imidazol-1-yl)methyl)-2-p-tolylH-imidazo[1,2-a]pyridine] |  |  | ++ (percentage of inhibition of central BZD site binding is greater than 80% in the presence of 1000 nM of the compound) | + (percentage of potentiation is greater than or equal to 10% but less than 50% in the presence of 100 nM of the compound) | + (percentage of potentiation is greater than or equal to 10% but less than 50% in the presence of 100 nM of the compound) | 
CNC(=O)c1ncnn1Cc1c(-c2ccc(Cl)cc2)nc2cccnn12 [Compound 90, 1-((2-(4-chlorophenyl)imidazo[1,2-b]pyridazin-3-yl)methyl)-N-methyl-1H-1,2,4-triazole-5-carboxamide] | 10 to 50% | 10 to 50% | ++ (percentage of inhibition of central BZD site binding is greater than 80% in the presence of 1000 nM of the compound) |  |  | 
Cc1nnc(Cc2c(-c3ccc(Cl)cc3)nc3ccccn23)o1 [Compound 204, 2-((2-(4-chlorophenyl)imidazo[1,2-a]pyridin-3-yl)methyl)-5-methyl-1,3,4-oxadiazole] | -10 to 10% | 10 to 50% | ++ (percentage of inhibition of central BZD site binding is greater than 80% in the presence of 1000 nM of the compound) |  |  | 
CCOC(=O)c1cc(C)n(Cc2c(-c3ccc(Cl)cc3)nc3ccccn23)n1 [Compound 29, ethyl 1-((2-(4-chlorophenyl)imidazo[1,2-a]pyridin-3-yl)methyl)-5-methyl-1H-pyrazole-3-carboxylate] | ≥ 50% | ≥ 50% | ++ (percentage of inhibition of central BZD site binding is greater than 80% in the presence of 1000 nM of the compound) |  |  | 
Cc1cccn(Cc2c(-c3ccc(Cl)cc3)nc3ccc(F)cn23)c1=O [Compound 121, 1-((2-(4-chlorophenyl)-6-fluoroimidazo[1,2-a]pyridin-3-yl)methyl)-3-methylpyridin-2(1H)-one] | ≥ 50% | ≥ 50% | ++ (percentage of inhibition of central BZD site binding is greater than 80% in the presence of 1000 nM of the compound) |  |  | 
